# Where two headings read alike, the source gives them in different places.
# What was measured:
# AsPC-1 = assay: Inhibition of proliferation of KRAS G12D mutant tumor cell line AsPC-1 (CellTiter-Glo); type: cell-based; conditions: Homo sapiens, ASPC1, about 72 h
# Description: 1. Experimental objective: The inhibition activity of the example compounds on the proliferation of 5 KRAS G12D mutant cell lines SNU-1, HPAF-II, Panc0403, AsPC-1 and GP2D was determined. 2. Experimental instruments: • 2.1 Instruments: Microplate reader (BioTek Synergy H1); Pipette (Eppendorf & Rainin). • 2.2 Reagents: HPAF-II, PANC0403, AsPC-1 and GP2D were purchased from COBIOER BIOSCIENCES CO., LTD; SNU-1 was purchased from the cell bank of Chinese Academy of Sciences, Cell Titer-Glo was purchased from Promega, with a catalog number of G7573; RPMI 1640 was purchased from Gibco, with a catalog number of 22400089; DMEM was purchased from Gibco, with a catalog number of 11995065; FBS was purchased from Gibco, with a catalog number of 10091148; PBS was purchased from Gibco, with a catalog number of 10010023; trypsin was purchased from Gibco, with a catalog number of 25200056; cell culture plates were purchased from Corning Company, with a catalog number of 3610. 3. Experimental method: When SNU-1, HPAF-II, Panc0403, AsPC-1 or GP2D cells were cultured to the appropriate confluence, and the SNU-1, HPAF-II, Panc0403, AsPC-1 or GP2D cells were collected. The cells were adjusted to the appropriate cell density using complete culture medium, the cell suspension was plated onto a 96-well plate at 90 µL per well, and the plate was placed in the incubator at 37°C and 5% CO2 for adherent culture overnight. Solutions of the compound with different concentrations were formulated using DMSO and culture medium. A vehicle control was set up. The solutions of the compound were added to the 96-well plate at 10 µL per well, and the plate was placed in the incubator at 37°C and 5% CO2 for further culture for about 72 h. Then, CellTiter-Glo solution was added, and the obtained mixture was shaken and mixed evenly, incubated in the dark for 10 min, and read with a BioTek Synergy H1 microplate reader. 4. Experimental data processing method: The luminescence signal value was used to calculate the inhibition rate. Graphpad Prism software was used to fit the concentration and inhibition rate to a nonlinear regression curve, so as to obtain the IC50 value. 5. Experimental results: Table 2: Determination of the inhibition activity of the compounds on the proliferation of KRAS G12D mutant tumor cell line GP2D
# p-ERK in AGS cells = assay: Inhibition of p-ERK in AGS cells (LANCE Ultra phospho-ERK1/2 kit); type: cell-based; conditions: read-out: AGS_pERK IC50
# Description: 1. Experimental objective: The inhibition activity of the example compounds on the phosphorylated ERK level in KRAS G12D mutant cells AGS was determined. 2. Experimental instruments: • 2.1 Instruments: Envison; Pipette (Eppendorf & Rainin) • 2.2 Reagents: AGS cells were purchased from COBIOER BIOSCIENCES CO., LTD, with a catalog number of CBP60476; Phosphorylated ERK1/2 (T202-Y204) LANCE Ultra Cellular Detection Kit was purchased from PerkinElmer, with a catalog number of TRF4000M; RPMI 1640 was purchased from Gibco, with a catalog number of 22400071; FBS was purchased from Gibco, with a catalog number of 10091148; PBS was purchased from Gibco, with a catalog number of 10010023; trypsin was purchased from Gibco, with a catalog number of 25200056; cell culture plates were purchased from Corning Company, with a catalog number of 3610; White opaque OptiPlate™-384 plates were purchased from PerkinElmer, with a catalog number of 6007290. 3. Experimental method: When AGS cells were cultured to appropriate confluence, the AGS cells were collected, and the cell density was adjusted to 4 × 10^5/mL using complete culture medium. The cell suspension was plated onto a 96-well plate at 100 µL per well, and the plate was placed in the incubator at 37°C and 5% CO2 for adherent culture overnight. Solutions of the compound with different concentrations were formulated using DMSO and complete culture medium, and a vehicle control was set up. The solutions of the compound were added to the 96-well plate at 25 µL per well, and the plate was placed in the incubator at 37°C and 5% CO2 for further culture for 2 h. Then, the supernatant of the cell culture plate was discarded, 50 µL of lysis buffer was added to each well, the cells were lysed at room temperature under shaking for 30 min, then placed in a centrifuge and centrifuged at 1000 rpm for 1 min. 15 µL of supernatant was transferred to a 384-well plate, 5 µL of detection mixture was added to each well (Eu-labeled anti-ERK1/2 (T202-Y204) Antibody at a final detection concentration of 0.5 nM and ULight labeled anti-ERK1/2 Antibody at a final detection concentration of 5 nM), centrifuged at 1000 rpm for 1 min, mixed evenly, and reacted at room temperature overnight. The plate was read using Envison and the signal values at the emission wavelengths of 620 nm and 665 nm were detected using a time-resolved fluorescence program. 4. […] Graphpad Prism software was used to fit the concentration and inhibition rate to a nonlinear regression curve, so as to obtain the IC50 value. Table 5: Inhibition activity of the compounds on p-ERK in AGS cells
# [1] = tested on: human pancreatic cancer cell line (HPAC); assay: Antitumor efficacy in mouse transplanted tumor model of human pancreatic cancer cell line (HPAC); type: in vivo, mice (BALB/c nude); conditions: Table 12, HPAC xenograft, 100mpk, PO*BID; for Tumor volume (mm^3, Mean ± SD) Day 0: Day 0 (baseline)
# Excerpt: 8-10 week old female conventional immunodeficient mice (BALB/c nude) with a body weight of 18 g-22 g were used as experimental animals, and a transplanted tumor model of human pancreatic cancer cell line (HPAC) was used to conduct in vivo efficacy experiments to test the anti-tumor results of the example compounds after gavage administration.
# The example compounds of the present invention, made in house.
# A certain amount of the example compound was weighed, and an appropriate amount of 10% vehicle (Solutol HS15) was added. The mixture was stirred on a magnetic stirrer for 0.5 h to formulate a homogeneous suspension at the desired concentration.
# Human pancreatic cancer cell line (HPAC) was derived from COBIOER BIOSCIENCES CO., LTD, cultured on DMEM/F12 medium (Gibco, 11330-032) supplemented with 10% fetal calf serum (Gibco, 10091-148), 1×Insulin (51500-056, Gibco) and 10 ng/ml of EGF (PHG0311, Gibco) and observed under a microscope (Thermo Fisher, 311). The cells were routinely passaged when the cells reached 80%-90% confluence in the culture flask. The passaged cells were cultured in a 37°C, 5% CO2 incubator (Thermo Fisher, 311).
# Under aseptic conditions, human pancreatic cancer cells (HPAC) in the logarithmic growth phase were harvested using 0.25% trypsin-EDTA (Gibco, 25200-056), washed and resuspended with phosphate buffer. The cell suspension was mixed with Matrigel (Corning, 356234) at a 1 : 1 ratio (v/v) and implanted subcutaneously into the right anterior dorsal region of immunodeficient mice (BALB/c nude). Each mouse was inoculated with 3*10^6 cells in a volume of 100 microliters (µL). After inoculation, when the tumor volume reached 100-200 mm^3, the mice would be evenly randomized into 5 groups based on the tumor size, with 5 mice per group, for in vivo efficacy experiments. The negative control group was the vehicle group.
# Mode of administration: The example compounds were administered orally.
# Twice a week, the long and short diameters of the tumor were measured using a vernier caliper, and the tumor volume (mm^3) was calculated using the formula: V = 0.5*D*d*d, where D and d are the long and short diameters of the tumor, respectively. The anti-tumor efficacy was determined by dividing the average increase in tumor volume of compound-treated animals by the average increase in tumor volume of untreated animals. The calculation formula for tumor inhibition rate was: When there is no tumor regression, TGI(%) = 100-[(Vt-V0) administration group/(Vt-V0) vehicle control group]*100%. When tumor regression occurs, TGI(%) = [1-(Vt-V0) administration group/V0 vehicle control group]*100%. All animals were euthanized after the experiment.
# GP2D = assay: Inhibition of proliferation of KRAS G12D mutant tumor cell line GP2D (CellTiter-Glo); conditions: read-out: GP2D IC50
# [2] = Pharmacokinetic determination in mice (IV and PO, plasma, LCMS/MS); type: in vivo, Balb/c mice; conditions: male, Balb/c, mouse, in vivo
# Outline: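 Male Balb/c mice, fasted overnight (n=3 per route): PO 30 mg/kg in 10% Captisol/50 mM citrate pH 5.0, or IV 1 mg/kg in 5% DMSO/10% Solutol HS15/85% PBS. Orbital blood sampled predose to 24 h; EDTA plasma analysed by LC-MS/MS.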
# [3] = Pharmacokinetic determination in rats (IV and PO, plasma, LCMS/MS); type: in vivo, SD rats; conditions: male, SD, rat, in vivo
# Outline: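 Male SD rats (3/group), fasted overnight, dosed PO at 30 mg/kg in 10% Captisol/50 mM citrate pH 5.0 or IV at 1 mg/kg in 5% DMSO/10% Solutol HS15/85% PBS. Jugular plasma (EDTA-2K) sampled predose to 24 h; analysed by LCMS/MS.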
# [4] = tested on: human colorectal cancer cell line (GP2D); assay: Anti-tumor efficacy in mouse transplanted tumor model of human colorectal cancer cell line (GP2D); type: in vivo, mice (BALB/c nude)
# KRAS G12D-SOS1 = target: T1, KRAS G12D-SOS1 (Homo sapiens, UniProt P01116, G12D); assay: Blocking of KRAS G12D-SOS1 protein binding (Cisbio KRAS-G12D/SOS1 Binding Assay Kit, time-resolved fluorescence); conditions: KRAS G12D-GTP and SOS1 protein, signal ratio 665nm/620nm; read-out: G12D SOS1 biochemical IC50
# T1 construct: purchased Cisbio 63ADK000CB17PEG
# T1 sequence (P01116 1-188 isoform P01116-2 G12D): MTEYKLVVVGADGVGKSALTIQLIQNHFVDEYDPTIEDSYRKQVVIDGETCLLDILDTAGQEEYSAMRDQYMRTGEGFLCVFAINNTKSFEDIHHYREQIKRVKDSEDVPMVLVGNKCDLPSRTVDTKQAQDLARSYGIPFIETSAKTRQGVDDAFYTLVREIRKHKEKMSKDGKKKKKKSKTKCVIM
# Excerpt: • 1. Experimental objective: […] Experimental reagents and instruments The centrifuge (5810R) was purchased from Eppendorf; the pipette was purchased from Eppendorf or Rainin; and the microplate reader was purchased from BioTek (United States) with a model of SynergyH1 multifunctional microplate reader. KRAS-G12D/SOS1 Binding Assay Kit was purchased from Cisbio, with a catalog number of 63ADK000CB17PEG; GTP was purchased from Sigma, with a catalog number of G8877; 384-well plate was purchased from Perkin Elmer, with a catalog number of 6007299. The Diluent buffer in the kit was used to dilute the compound into 10× compound solution of different concentrations, and 2 uL was added to each well of the 384-well plate. Tag2-KRAS G12D protein and GTP were formulated into a mixed solution of 5×KRAS G12D-GTP protein using Diluent buffer, and Tag1-SOS1 protein was formulated into a 5×SOS1 protein solution using Diluent buffer. Each solution was added to the 384-well plate separately at 4 uL per well, and incubated at room temperature for 15 min. A mixed solution of 2× anti-Tag1-Tb^3+ and anti-Tag2-XL665 formulated using detection buffer was added to the 384-well plate at 10 µL per well, and incubated at 4°C in the dark for 3 h.
# KRAS WT = KRAS WT (Homo sapiens, UniProt P01116); assay: KRAS WT biochemical assay (Table 1, no method of its own); type: binding; conditions: read-out: KRAS WT Biochemical IC50
# Chain of KRAS WT (P01116 1-188 isoform P01116-2): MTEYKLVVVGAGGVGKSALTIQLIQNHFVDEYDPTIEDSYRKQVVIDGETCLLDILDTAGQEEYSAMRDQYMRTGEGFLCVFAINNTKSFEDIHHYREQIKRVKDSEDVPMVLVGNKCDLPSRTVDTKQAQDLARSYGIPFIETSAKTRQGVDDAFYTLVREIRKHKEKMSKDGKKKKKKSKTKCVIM
compound,measurement,setting,value
"[2H]C([2H])([2H])[C@@H]1Oc2nc(-c3cc(N)cc(Cl)c3C(F)(F)F)c(F)c3nc(OC([2H])([2H])C4(C([2H])([2H])N5CCC(=NOC)CC5)CC4)nc(c23)N2C[C@H]3CC[C@H](N3)[C@@H]12 [Example 341, 1-((1-((((5S,5aS,6S,9R)-2-(5-amino-3-chloro-2-(trifluoromethyl)phenyl)-1-fluoro-5-(methyl-d3)-5a,6,7,8,9,10-hexahydro-5H-4-oxa-3,10a,11,13,14-pentaaza-6,9-methylnaphtho[1,8-ab]heptene-12-yl)oxy)methyl-d2)cyclopropyl)methyl-d2)piperidin-4-one O-methyloxime]",IC50,AsPC-1,2.6 nM
same,IC50,"p-ERK in AGS cells; Homo sapiens, AGS, 2 h",4.2 nM
same,"Tumor volume (mm^3, Mean ± SD) Day 0",[1],469 mm^3
same,TGI(%) Day 14,[1],161.42%
same,ΔT/ΔC(%) Day 14,[1],18.73%
same,"Tumor volume (mm^3, Mean ± SD) Day 21",[1],180 mm^3
same,IC50,"GP2D; Homo sapiens, GP2d, 72 h",0.1 nM
"3-chloro-5-((5S,5aS,6R,9S)-5-ethyl-1-fluoro-12-((1-((4-(fluoromethylene)piperidin-1-yl)methyl-d2)cyclopropyl)methoxy-d2)-5a,6,7,8,9,10-hexahydro-5H-4-oxa-3,10a,11,13,14-pentaaza-6,9-methylnaphtho[1,8-ab]hept-2-yl)-4-(trifluoromethyl)aniline [Example 330]",IC50,"p-ERK in AGS cells; AGS cells, 2 h with compound",3.8 nM
same,"Tumor volume (mm^3, Mean ± SD) Day 0",[1],468 mm^3
same,TGI(%) Day 14,[1],110.18%
same,ΔT/ΔC(%) Day 14,[1],43.78%
same,"Tumor volume (mm^3, Mean ± SD) Day 21",[1],418 mm^3
same,IC50,"GP2D; proliferation, about 72 h, CellTiter-Glo",0.17 nM
"C#Cc1c(F)ccc2cc(O)cc(-c3ncc4c(N5CC6CCC(C5)N6)nc(OC[C@@]56CCCN5C[C@H](F)C6)nc4c3F)c12 [MRTX-1133, reference compound]",AUC,"[2]; iv, 1 mg/kg",305 ng·h/mL
same,C0,"[2]; iv, 1 mg/kg",854 ng/mL
same,clearance,"[2]; iv, 1 mg/kg",55 mL/min/kg
same,half-life,"[2]; iv, 1 mg/kg",11.1 h
same,Cmax,"[2]; po, 30 mg/kg",11 ng/mL
same,Tmax,"[2]; po, 30 mg/kg",2 h
same,AUC,"[3]; iv, 1 mg/kg",367 ng·h/mL
same,C0,"[3]; iv, 1 mg/kg",2490 ng/mL
same,clearance,"[3]; iv, 1 mg/kg",45 mL/min/kg
same,half-life,"[3]; iv, 1 mg/kg",2.7 h
same,Cmax,"[3]; po, 30 mg/kg",11 ng/mL
same,Tmax,"[3]; po, 30 mg/kg",2 h
same,"Tumor volume (mm^3, Mean ± SD) Day 0","[4]; 10mpk, IV*BID, Day 0",167 mm^3
same,TGI(%) Day 14,"[4]; 10mpk, IV*BID, Day 14",143.79%
same,"Tumor volume (mm^3, Mean ± SD) Day 14","[4]; 10mpk, IV*BID, Day 14",94 mm^3
same,ΔT/ΔC(%) Day 14,"[4]; 10mpk, IV*BID, Day 14",11.89%
same,tumor inhibition effect (in words),[4]; intravenous administration dose of 10 mg/kg,inhibition effect of tumor regression
C#Cc1c(F)ccc2cc(O)cc(-c3nc4c5c(nc(OCC6(CN7CCC(=C(F)F)C7)CC6)nc5c3F)N3CC5CCC(N5)C3CO4)c12 (stereo not drawn) [Example 14-1],IC50,KRAS G12D-SOS1,4.3 nM
same,IC50,KRAS WT,153 nM
same,IC50,"GP2D; Homo sapiens, GP2d, 72 h",1.5 nM
